Test results as given in ChEMBL document CHEMBL1201862, “PubChem BioAssay data set” (2004).
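Where inhibition never reached the appropriate level, the endpoint shown equals the highest concentration tested. Otherwise, values were interpolated linearly from a five-concentration, 48-hour dose response in 96-well plates. The concentration for 50% growth inhibition is given as GI50.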 Activity calls are given as the source filed them. No stated cut-off is given here; in the data, active = GI50 up to about 1.1 µM and inactive = higher.

Columns and labels:
Experiment in all cases: DTP human tumour cell line panel, 48 h
NCI-H226 = tested on: NCI-H226
A549 = tested on: A549
MOLT-4 = tested on: MOLT-4
KM12 = tested on: KM12
NCI-H23 = tested on: NCI-H23
SNB-75 = tested on: SNB-75
EKVX = tested on: EKVX
Malme-3M = tested on: Malme-3M
HCC 2998 = tested on: HCC 2998
SK-MEL-5 = tested on: SK-MEL-5
HOP-92 = tested on: HOP-92
SN12C = tested on: SN12C
UACC-257 = tested on: UACC-257
TK-10 = tested on: TK-10
SF-539 = tested on: SF-539
ACHN = tested on: ACHN
HCT-116 = tested on: HCT-116

Measured: GI50

CCOc1ccc(OCC(=O)O)c2c1CCCC2=O
inactive: NCI-H226 > 100 µM | A549 > 100 µM | MOLT-4 > 100 µM | KM12 > 100 µM | NCI-H23 > 100 µM | SNB-75 > 100 µM | EKVX > 100 µM | Malme-3M > 100 µM | HCC 2998 > 100 µM | SK-MEL-5 > 100 µM | HOP-92 > 100 µM | SN12C > 100 µM | UACC-257 > 100 µM | TK-10 > 100 µM | SF-539 > 100 µM | ACHN > 100 µM

CCN(CC)/C(=C\Cl)Nc1ccccn1.[O-][Cl+3]([O-])([O-])O
inactive: NCI-H226 > 100 µM | A549 > 100 µM | MOLT-4 > 100 µM | KM12 > 100 µM | NCI-H23 > 100 µM | SNB-75 > 100 µM | EKVX > 100 µM | Malme-3M > 100 µM | HCC 2998 > 100 µM | SK-MEL-5 > 100 µM | HOP-92 > 100 µM | SN12C > 100 µM | UACC-257 > 100 µM | TK-10 > 100 µM | SF-539 > 100 µM | HCT-116 > 100 µM | ACHN > 100 µM

Nn1c(-c2ccccc2Cl)nc2ccccc2c1=O
inactive: NCI-H226 57 µM | A549 > 100 µM | MOLT-4 > 100 µM | KM12 > 100 µM | NCI-H23 > 100 µM | SNB-75 > 100 µM | EKVX > 100 µM | Malme-3M 83.8 µM | HCC 2998 > 100 µM | SK-MEL-5 > 100 µM | HOP-92 > 100 µM | SN12C > 100 µM | UACC-257 > 100 µM | TK-10 > 100 µM | SF-539 > 100 µM | HCT-116 > 100 µM | ACHN > 100 µM

CCCNC(=O)c1cc2ccccc2cc1C(=O)OC
inactive: NCI-H226 83.4 µM | A549 > 100 µM | MOLT-4 > 100 µM | KM12 > 100 µM | NCI-H23 > 100 µM | SNB-75 19.3 µM | EKVX > 100 µM | Malme-3M > 100 µM | HCC 2998 > 100 µM | SK-MEL-5 > 100 µM | HOP-92 59.2 µM | SN12C > 100 µM | UACC-257 > 100 µM | TK-10 > 100 µM | SF-539 > 100 µM | HCT-116 > 100 µM | ACHN 78.2 µM

Cc1nc(Nc2ccc(Cl)cc2)sc1C(=O)NNc1ccc([N+](=O)[O-])cc1[N+](=O)[O-]
inactive: NCI-H226 15.7 µM | A549 16.6 µM | MOLT-4 15 µM | KM12 15.8 µM | NCI-H23 17.3 µM | SNB-75 16.7 µM | EKVX 14.9 µM | Malme-3M 20.7 µM | HCC 2998 16.3 µM | SK-MEL-5 15.6 µM | HOP-92 23.6 µM | SN12C 17.7 µM | UACC-257 16.4 µM | TK-10 19.8 µM | SF-539 17.3 µM | HCT-116 13.8 µM | ACHN 17.3 µM

CCCCOC(=O)NC(=O)c1cn(CCCOC(=O)CCCCCCCCC(=O)OCCCn2cc(C(=O)NC(=O)OCCCC)c(=O)n(C)c2=O)c(=O)n(C)c1=O
inactive: NCI-H226 > 100 µM | A549 > 100 µM | MOLT-4 > 100 µM | KM12 > 100 µM | NCI-H23 > 100 µM | SNB-75 58.1 µM | EKVX > 100 µM | Malme-3M > 100 µM | HCC 2998 > 100 µM | SK-MEL-5 > 100 µM | HOP-92 > 100 µM | SN12C > 100 µM | UACC-257 > 100 µM | TK-10 > 100 µM | SF-539 > 100 µM | HCT-116 > 100 µM | ACHN > 100 µM

CCN(CC)CCOC(c1ccccc1)c1ccccc1.CCOC(=O)Nc1ccc(S(=O)(=O)OC)cc1.CCOC(=O)Nc1ccc(S(=O)(=O)OC)cc1.Nc1ccc(C(=O)O)c(O)c1
inactive: NCI-H226 > 100 µM | A549 > 100 µM | MOLT-4 > 100 µM | KM12 > 100 µM | NCI-H23 > 100 µM | SNB-75 > 100 µM | EKVX > 100 µM | Malme-3M > 100 µM | HCC 2998 > 100 µM | SK-MEL-5 > 100 µM | HOP-92 > 100 µM | SN12C > 100 µM | UACC-257 > 100 µM | TK-10 > 100 µM | SF-539 > 100 µM | HCT-116 > 100 µM | ACHN > 100 µM

COc1ccc(C(=O)c2c(C(C(=O)c3ccc(OC)cc3)C(=O)c3ccc(OC)cc3)n(C(=O)c3ccc(OC)cc3)c3ccccc23)cc1
inactive: NCI-H226 > 100 µM | A549 > 100 µM | MOLT-4 > 100 µM | KM12 > 100 µM | NCI-H23 > 100 µM | SNB-75 > 100 µM | EKVX > 100 µM | Malme-3M > 100 µM | HCC 2998 > 100 µM | SK-MEL-5 > 100 µM | HOP-92 > 100 µM | SN12C > 100 µM | TK-10 > 100 µM | SF-539 > 100 µM | HCT-116 > 100 µM | ACHN > 100 µM
